The results in this text go back to ChEMBL document CHEMBL1201862, “PubChem BioAssay data set” (2004).

What all share (assay): inhibition of tumour cell growth, NCI panel, 48 h
Test [1] deals with LXFL 529.
The test system of test [2] is EKVX.
Test [3] relates to NCI-H226.
Test [4] concerns CCRF-CEM.
In test [5] the test system is HT-29.
In test [6] the test system is K562.
Test [7] relates to 786-0.
Test [8] deals with NCI-H522.
Test [9] relates to MOLT-4.
Test [10] relates to SK-MEL-28.
Test [11] relates to HCT-15.
The test system of test [12] is KM12.
Test [13] has as its system NCI-H23.
Test [14] concerns DMS-114.
The test system of test [15] is COLO 205.
Test [16] relates to OVCAR-5.
For test [17], the system named is Hs-578T.
Test [18] concerns SK-OV-3.
The subject of test [19] is SNB-75.
The subject of test [20] is MDA-MB-435.

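Briefly, cells in 96-well plates were exposed to five compound concentrations for 48 h, and endpoints were estimated by linear interpolation. Abbreviation: GI50, concentration required for 50% inhibition of growth.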 The source made the active and inactive calls. Rule as the data show it: active = GI50 up to about 1.1 µM and inactive = higher.

Consider `CCCn1c(SCC)c2ccccc2c1-c1nc(F)nc(F)n1`, for which the GI50 in test [1], in [2], in test [3], in [4], in [5] and in [6] was > 100 µM (inactive) in each case. Further, the GI50 in test [7] was > 100 µM (inactive); in [8], > 100 µM (inactive); in test [9], > 100 µM (inactive); in test [10], > 100 µM (inactive); in [11], above 100 µM; in test [12], > 100 µM (inactive). Besides, the GI50 in [13], in [14], in test [15] and in test [16] was > 100 µM (inactive) each time.

Regarding `Cc1ccc(S(=O)(=O)OC(c2ccc(Cl)cc2Cl)C2OC(=O)c3ccccc32)cc1` (stereo not drawn), the GI50 in [1] was > 100 µM (inactive); in test [2], > 100 µM (inactive); in test [3], 19.7 µM (inactive); in test [4], 34.8 µM (inactive); in [5] it was 38.6 µM (inactive); in test [6], 33.6 µM (inactive). Moreover, the GI50 is > 100 µM (inactive) in test [7]; 57.9 µM (inactive) in test [8]; 30.2 µM (inactive) in [9]; > 100 µM (inactive) in [10]; 56.5 µM in test [11]; 36 µM (inactive) in test [12]. The GI50 was > 100 µM (inactive) in test [13], 45.8 µM (inactive) in test [14], 83.2 µM (inactive) in test [15] and > 100 µM (inactive) in test [16].

In the case of `Cc1nc2c(C)c3c([nH]c4ccc(Cl)cc43)c(C)c2c(O)c1C`, the GI50 was 22 µM (inactive) in test [2]; 4.82 µM (inactive) in test [3]; 2.91 µM (inactive) in test [4]; 15.9 µM (inactive) in [17]; 4.37 µM (inactive) in test [5]; 7.5 µM (inactive) in test [6]. Further, the GI50 in test [7] was 3.99 µM (inactive); in test [18] it was 16.5 µM (inactive); in [19], 16.8 µM (inactive); in test [8], 4.16 µM (inactive); in test [9] it was 1.63 µM (inactive); in test [10] it was 10.8 µM (inactive). The GI50 in [11] was 3.21 µM; in [12], 10.4 µM (inactive); in [13], 4.68 µM (inactive); in test [14], 19.8 µM (inactive); in test [20], 6.34 µM (inactive); in [15] it was 5.53 µM (inactive). For the same molecule, the GI50 in test [16] is 6.76 µM (inactive).

For `CCOC(=O)C1=C(C)N2CCOC2(C)C(C(=O)OC)C1c1cccc(Cl)c1` (stereo not drawn), the GI50 in test [1] is > 100 µM (inactive); in [2], > 100 µM (inactive); in test [4] it was > 100 µM (inactive); in test [5], > 100 µM (inactive); in [6], 81.5 µM (inactive); in [7], > 100 µM (inactive). Further, the GI50 was > 100 µM (inactive) in [18]; > 100 µM (inactive) in test [19]; 88.7 µM (inactive) in test [8]; > 100 µM (inactive) in test [10]; above 100 µM in [11]; > 100 µM (inactive) in [12]. In addition, the GI50 in [13] was > 100 µM (inactive); in test [14], 54 µM (inactive); in [15] it was > 100 µM (inactive); in test [16], > 100 µM (inactive).

Regarding `O=C1CC(c2c(-c3ccccc3)[nH]c3ccccc23)C(=O)N1c1ccccc1` (stereo not drawn), the GI50 was 57.1 µM (inactive) in [1]; > 100 µM (inactive) in test [2]; > 100 µM (inactive) in test [3]; 63.7 µM (inactive) in test [4]; > 100 µM (inactive) in test [5]; 57.1 µM (inactive) in [6]. For the same molecule, the GI50 in test [7] is > 100 µM (inactive); in test [18], > 100 µM (inactive); in test [19] it was > 100 µM (inactive); in test [9], 61.5 µM (inactive); in test [10], > 100 µM (inactive); in test [11] it was 61.8 µM. Further, the GI50 is 44.4 µM (inactive) in [12], 78.7 µM (inactive) in test [13], 49.5 µM (inactive) in test [14] and > 100 µM (inactive) in [16].

Regarding `CCOC(=O)C1=C(C)N(NC(=O)Nc2ccccc2)C2(N)N(NC(=O)Nc3ccccc3)C(C)=C(C(=O)OCC)C12C(=O)OCC` (stereo not drawn), the GI50 is 57 µM (inactive) in test [1]; > 100 µM (inactive) in test [2]; 54.3 µM (inactive) in [5]; > 100 µM (inactive) in [6]; 45.3 µM (inactive) in test [7]; 29.9 µM (inactive) in test [18]. For the same molecule, the GI50 was 25.9 µM (inactive) in test [19]; 70 µM (inactive) in [8]; 34.4 µM (inactive) in test [10]; above 100 µM in test [11]; > 100 µM (inactive) in [12]; 64 µM (inactive) in test [13]. For the same molecule, the GI50 was 25.5 µM (inactive) in test [14], 1.85 µM (inactive) in [15] and > 100 µM (inactive) in [16].

Take `Cc1ccc(SSCCCCS(=O)O)cc1`: the GI50 in test [1] was 12.9 µM (inactive); in [2] it was 18.5 µM (inactive); in [4] it was 5.74 µM (inactive); in [5], 21.7 µM (inactive); in test [6], 24.3 µM (inactive); in [7] it was 32 µM (inactive). Besides, the GI50 in test [18] was 34.2 µM (inactive); in [19], 14.1 µM (inactive); in test [8], 12.5 µM (inactive); in test [9] it was > 100 µM (inactive); in test [10], 17.1 µM (inactive); in test [11] it was 17.5 µM. The GI50 was 18.2 µM (inactive) in [12]; 17.9 µM (inactive) in test [13]; 11.5 µM (inactive) in test [14]; 19.5 µM (inactive) in [15]; 45.4 µM (inactive) in test [16].

As to `Nc1nc(O)c2nc(N)n(Cc3ccccc3)c2n1`, the GI50 in test [1], in test [2], in test [4], in [5], in test [6] and in test [7] was > 100 µM (inactive) throughout. Also, the GI50 in test [18] was > 100 µM (inactive); in test [19], > 100 µM (inactive); in [8] it was > 100 µM (inactive); in test [9], > 100 µM (inactive); in test [10] it was > 100 µM (inactive); in test [11] it was above 100 µM. Besides, the GI50 in test [12], in test [13], in test [14], in [15] and in test [16] was > 100 µM (inactive) each time.

On to `CC(=O)OCC(=O)[C@@]12OC(C)(C)O[C@@H]1C[C@H]1[C@@H]3CC(C=O)=C4C=C(OCCCl)CC[C@]4(C)[C@@]3(F)[C@@H](O)C[C@@]12C` [FORMOCORTAL], for which the GI50 in [2] is 10.3 µM (inactive); in [3] it was 17.3 µM (inactive); in test [4], 0.486 µM (active); in [5] it was 12.5 µM (inactive); in [6], 4.74 µM (inactive); in test [7] it was 16.1 µM (inactive). Also, the GI50 in test [18] was 1.39 µM (inactive); in [8], 20.3 µM (inactive); in [9], 5.87 µM (inactive); in test [10] it was 19 µM (inactive); in test [11], 11.6 µM; in test [12], 16.7 µM (inactive). The GI50 was 15.8 µM (inactive) in test [13], > 100 µM (inactive) in test [14], 18 µM (inactive) in test [15] and 14.3 µM (inactive) in test [16].
